Results from US20080274543A1, “Neuronal Cell Propagation Using Rotating Wall Vessel” (THE ADMINISTRATORS OF THE TULANE EDUCATIONAL FUND, priority 2007, published 2008).
“And” between values parts separate entries of the source, which are not always exact repeats. Equal values may be shown once.

Tested on: SY cells
Test: TUNEL apoptosis assay, TG-stimulated SY cells in 3-D versus 2-D culture
Assay type: cell-based, human
Procedure: SY cells (1×10^6) cultured in 2-D or 3-D were incubated with or without 10 nM TG. The 2-D and 3-D cells were harvested using trypsin, washed in PBS, and fixed for 5-10 min in 2% PFA. Prior to fixation, the 3-D-cultured cells treated inside of the RWV were separated from the beads using a 40-μm cell strainer (Becton Dickinson). The fixed cells were permeabilized in PBS/FSG/Triton and blocked with 10% NGS. Apoptosis was evaluated using the Apoptag TUNEL assay kit (Chemicon). The results were analyzed using a Leica TCS SP2 confocal microscope as described above. Cell morphology consistent with apoptosis including cell shrinkage, nuclear condensation and membrane blebbing were assessed along with the fluorescein staining for TUNEL. The number of apoptotic cells counted was divided by the total (500 minimum) number of cells counted. This protocol was also followed for evaluation of apoptosis in PC12 cells. An increased drug tolerance, 30-nM TG was used in the PC12 assay. 3-D-cultured PC12 samples were stimulated for 5 days after removal from the RWV to multi-well dishes.
Thapsigargin (TG) is known to induce apoptosis through the passive release of Ca^2+ from ER stores. These events lead to subsequent increases in cytosolic Ca^2+, stressing both the ER and the mitochondria (Elyaman et al., 2002; Nechushtan A, Smith C L, Lamensdorf I, Yoon S H, Youle R J. Bax and Bak coalesce into novel mitochondria-associated clusters during apoptosis. The Journal of cell biology, 2001; 153: 1265-76; Nguyen H N, Wang C, Perry D C. Depletion of intracellular calcium stores is toxic to SH-SY5Y neuronal cells. Brain Res, 2002; 924: 159-66; Scorrano et al., 2003; Zong W X, Li C, Hatzivassiliou G, Lindsten T, Yu Q C, Yuan J, Thompson C B. Bax and Bak can localize to the endoplasmic reticulum to initiate apoptosis. The Journal of cell biology, 2003; 162: 59-69). In order to determine inherent differences in apoptosis between the 3-D and 2-D cultured cells, the terminal uridine deoxynucleotidyl transferase dUTP nick end labeling (TUNEL) assay was used. […]

C/C=C(/C)C(=O)O[C@H]1C(C)=C2[C@H]([C@@H]1OC(=O)CCCCCCC)[C@@](C)(OC(C)=O)C[C@H](OC(=O)CCC)[C@@]1(O)[C@H]2OC(=O)[C@@]1(C)O [TG, Thapsigargin]
thapsigargin-induced apoptosis in 3D cultured SH-SY5Y cells versus monolayer (3D versus ML culture): notably enhanced | degree of apoptosis in TG-stimulated versus control cells at 24 h (24 h, TG 10 nM): noticeable difference in the degree of apoptosis occurring in stimulated versus control cells was found only in the 3-D(RWV) cells | increase in TUNEL-positive (apoptotic) SY cells, 3-D versus 2-D culture, when treated with TG (TG 10 nM, 5 days, 3-D+TG versus 2-D+TG): 4 to 7 fold and 4- to 7 fold
